Measurements as given in patent US5114920A, “BU-3292T antibiotics” (priority 1988, dated 1992).
≈ marks a conversion by molar mass, not a printed value. Starred links: 1 amine or outer side, 2 acyl side, 3 side chain; linkers in the order of their positions; H or OH if unused. Positions of bridges follow the written chain, without caps; N, C: chain ends. Non-standard residues stand in square brackets, D forms with d. Residues, ends and D or L forms follow the SMILES beside them. *: point of attachment. X2 = CC1CCC(C(=O)[*:2])N1[*:1]; NMeV = CN[CH](C(=O)O)C(C)C; X1 = Cc1ccc(C(=O)*)c(N)c1O; Sar = CNCC(=O)O

How the values were obtained:
gram-negative bacteria = experiment: Antimicrobial activity, agar dilution, summary in words; format: cell-based; details: summary of Table 6
Protocol: (§1) The antimicrobial activity of BU-3292T A and B was determined against aerobic and anaerobic bacteria and fungi by a serial two-fold agar dilution method. BU-3292T A and B are active against aerobic gram-positive bacteria, and weakly active against anaerobic gram-negative bacteria and fungi.

[1] = tested on: aerobic gram-positive bacteria; experiment: as above; format: cell-based; details: summary of Table 6
Protocol: as §1

[2] = tested on: anaerobic gram-negative bacteria and fungi; experiment: as above; format: cell-based; details: summary of Table 6
Protocol: as §1

[3] = tested on: lymphocytic leukemia P388; experiment: Antitumor activity against P388 leukemia (ip); format: in vivo, mice; details: for MST (Median survival time) / T/C: QD × 3, ip
Protocol: (§2) BU-3292T components A and B were tested for in vitro cytotoxicity against murine and human tumor cells and for in vivo antitumor activity in mice. Actinomycin D was used as a reference compound in both in vitro and in vivo experiments. B16-F10 (murine melanoma) and Moser (human colorectal carcinoma) cells were grown to the logarithmic phase in enriched Eagle minimum essential medium (MEM) supplemented with fetal calf serum (FCS, 10%) and kanamycin (60 mcg/ml), harvested and inoculated into wells of a 96-well microtiter plate with test materials at the concentrations of 3.0×10^4 and 6.0×10^4 cells/ml, respectively. They were incubated at 37° C. in humidified atmosphere of 5% CO2 and 95% air for 72 hours. The cytotoxic activity was determined colorimetrically at 540 nm after staining viable cells with neutral red. […] Inhibitory effects of BU-3292T component A on macromolecule (DNA, RNA and protein) synthesis were determined in vitro. Cultured L1210 murine leukemia cells (5×10^5 cells/ml) were incubated with test materials at 37° C. for 15 minutes and then further incubated for 60 minutes after the addition of labelled precursor, ^3 H-thymidine, ^14 C-uridine or ^3 H-leucine, into the cultured mixtures. After washing with chilled 5% trichloroacetic acid solution, the radioactivity incorporated into the acid-insoluble fraction of the tumor cells was determined in a liquid scintillation counter. […] In vivo antitumor activities of BU-3292T components A and B were tested in tumor-bearing female CDF mice. After the intraperitoneal implantation of diluted ascitic fluid with 1.0 ×10^6 lymphocytic leukemia P388 cells into the mice, test compounds were administered intraperitoneally once a day on days 1, 2 and 3 (QD×3).

Solubility = format: physicochemical
Text: BU-3292T A is isolated as a white amorphous powder, while BU-3292T B is an orange-red powder. […] The compounds give positive responses to iodine and Rydone-Smith reagents, but negative responses to Sakaguchi, ferric chloride, ninhydrin and anthrone reagents. […] The IR spectra of BU-3292T A and B are illustrated in FIGS. 1 and 2, respectively.

[4] = tested on: Clostridium perfringens A9635; format: cell-based; details: GAM agar
[5] = tested on: RNA synthesis in L1210 leukemia cells; experiment: Inhibition of macromolecule synthesis, 14C-uridine incorporation; format: cell-based, murine
Protocol: as §2

[6] = tested on: Protein synthesis in L1210 leukemia cells; experiment: Inhibition of macromolecule synthesis, 3H-leucine incorporation; format: cell-based, murine
Protocol: as §2

[7] = Body weight change in P388-bearing mice; details: QD × 3, ip
Protocol: as §2

[8] = tested on: Propionibacterium anaerobius A21905; experiment: Antimicrobial activity, serial two-fold agar dilution method; format: cell-based; details: GAM agar
Protocol: as §1

[9] = tested on: Cryptococcus neoformans IAM 4519; experiment: as above; format: cell-based; details: Sabouraud dextrose agar
Protocol: as §1

[10] = tested on: Staphylococcus epidermidis D153; experiment: as above; format: cell-based; details: Nutrient agar
Protocol: as §1

[11] = tested on: Aspergillus fumigatus IAM 2530; experiment: as above; format: cell-based; details: Sabouraud dextrose agar
Protocol: as §1

[12] = tested on: Clostridium difficile A21675; experiment: as above; format: cell-based; details: GAM agar
Protocol: as §1

[13] = tested on: Trichophyton mentagrophytes D155; experiment: as above; format: cell-based; details: Sabouraud dextrose agar
Protocol: as §1

[14] = tested on: Streptococcus faecalis A9612; experiment: as above; format: cell-based; details: Nutrient agar
Protocol: as §1

Mucor spinosus IFO 5317 = experiment: as above; format: cell-based
Protocol: as §1

[15] = tested on: Bacteroides fragilis A22693; experiment: as above; format: cell-based; details: GAM agar
Protocol: as §1

[16] = tested on: Bacillus subtilis PCI-219; experiment: as above; format: cell-based; details: Nutrient agar
Protocol: as §1

Proteus vulgalis A9436 = experiment: as above; format: cell-based; details: Nutrient agar
Protocol: as §1

[17] = tested on: Candida albicans IAM 4888; experiment: as above; format: cell-based; details: Sabouraud dextrose agar
Protocol: as §1

Proteus mirabilis A9554 = experiment: as above; format: cell-based; details: Nutrient agar
Protocol: as §1

[18] = tested on: Fusarium moniliforme A2284; experiment: as above; format: cell-based; details: Sabouraud dextrose agar
Protocol: as §1

Micrococcus luteus 1001 = experiment: as above; format: cell-based; details: Nutrient agar
Protocol: as §1

[19] = tested on: Staphylococcus aureus 209P; experiment: as above; format: cell-based; details: Nutrient agar
Protocol: as §1

[20] = tested on: Propionibacterium acnes A21933; experiment: as above; format: cell-based; details: GAM agar
Protocol: as §1

[21] = tested on: Pseudomonas aeruginosa A9930; experiment: as above; format: cell-based; details: Nutrient agar
Protocol: as §1

Escherichia coli NIHJ = experiment: as above; format: cell-based; details: Nutrient agar
Protocol: as §1

[22] = tested on: Streptococcus pyogenes A20201; experiment: as above; format: cell-based; details: Nutrient agar
Protocol: as §1

[23] = tested on: Klebsiella pneumoniae D11; experiment: as above; format: cell-based; details: Nutrient agar
Protocol: as §1

[24] = tested on: Staphylococcus aureus smith; experiment: as above; format: cell-based; details: Nutrient agar
Protocol: as §1

[25] = tested on: B16-F10 (murine melanoma) cells; experiment: In vitro cytotoxicity, neutral red staining; format: cell-based
Protocol: as §2

[26] = tested on: Moser (human colorectal carcinoma) cells; experiment: In vitro cytotoxicity, neutral red staining; format: cell-based; details: 72 hours
Protocol: as §2

[27] = tested on: DNA synthesis in L1210 leukemia cells; experiment: Inhibition of macromolecule synthesis, 3H-thymidine incorporation; format: cell-based, murine
Protocol: BU-3292T components A and B were tested for in vitro cytotoxicity against murine and human tumor cells and for in vivo antitumor activity in mice. Actinomycin D was used as a reference compound in both in vitro and in vivo experiments. B16-F10 (murine melanoma) and Moser (human colorectal carcinoma) cells were grown to the logarithmic phase in enriched Eagle minimum essential medium (MEM) supplemented with fetal calf serum (FCS, 10%) and kanamycin (60 mcg/ml), harvested and inoculated into wells of a 96-well microtiter plate with test materials at the concentrations of 3.0×10^4 and 6.0×10^4 cells/ml, respectively. They were incubated at 37° C. in humidified atmosphere of 5% CO2 and 95% air for 72 hours. The cytotoxic activity was determined colorimetrically at 540 nm after staining viable cells with neutral red. […] Inhibitory effects of BU-3292T component A on macromolecule (DNA, RNA and protein) synthesis were determined in vitro. […] After washing with chilled 5% trichloroacetic acid solution, the radioactivity incorporated into the acid-insoluble fraction of the tumor cells was determined in a liquid scintillation counter. […]

Cc1ccc(C(=O)NC2C(=O)NC(C(C)C)C(=O)N3C(C)CCC3C(=O)N(C)CC(=O)N(C)C(C(C)C)C(=O)OC2C)c(N)c1O (stereo not shown) [BU-3292T A] (X1-TV[X2][Sar][NMeV]; ester 1-C; configuration not given here)
activity against gram-negative bacteria (gram-negative bacteria): inactive | activity against aerobic gram-positive bacteria [1]: active | activity against anaerobic gram-negative bacteria and fungi [2]: weakly active | MST (Median survival time) ([3]; 0.03 mg/kg/day): 11.0 days | T/C ([3]; 0.03 mg/kg/day): 110% | MST (Median survival time) ([3]; 0.1 mg/kg/day): 11.0 days | T/C ([3]; 0.1 mg/kg/day): 110% | MST (Median survival time) ([3]; 0.3 mg/kg/day): 12.0 days | T/C ([3]; 0.3 mg/kg/day): 120% | MST (Median survival time) ([3]; 1 mg/kg/day): 13.0 days | T/C ([3]; 1 mg/kg/day): 130% | MST (Median survival time) ([3]; 3 mg/kg/day): 14.0 days | T/C ([3]; 3 mg/kg/day): 140% | MST (Median survival time) ([3]; 10 mg/kg/day): 16.0 days | T/C ([3]; 10 mg/kg/day): 160% | MST (Median survival time) ([3]; 30 mg/kg/day): Tox | T/C ([3]; 30 mg/kg/day): Tox | maximum T/C value ([3]; anti-P388 leukemic activity, QD×3, ip): 160% | solubility in dimethyl sulfoxide, dimethylformamide, methanol, ethyl acetate and chloroform (Solubility; dimethyl sulfoxide, dimethylformamide, methanol, ethyl acetate, chloroform): readily soluble | solubility in water and other organic solvents (Solubility; water and other organic solvents): insoluble | MIC [4]: 100 µg/mL (≈ 155 µM) | inhibited RNA synthesis times more than DNA synthesis ([5]; L1210 cells, RNA versus DNA synthesis): approximately 300 times | IC50 RNA ([5]; L1210 leukemia cells, 14C-uridine): 0.23 µg/mL (≈ 0.357 µM) | inhibitory effect on protein synthesis ([6]; L1210 cells, at 100 mcg/ml, the highest concentration tested): no inhibitory effect | IC50 Protein ([6]; L1210 leukemia cells, 3H-leucine): > 100 µg/mL | Body weight change on day 4 ([7]; 0.03 mg/kg/day): +1.3 g | Body weight change on day 4 ([7]; 0.1 mg/kg/day): +1.3 g | Body weight change on day 4 ([7]; 0.3 mg/kg/day): +1.3 g | Body weight change on day 4 ([7]; 1 mg/kg/day): +0.5 g | Body weight change on day 4 ([7]; 3 mg/kg/day): +0.3 g | Body weight change on day 4 ([7]; 10 mg/kg/day): -3.0 g | MIC [8]: 100 µg/mL (≈ 155 µM) | MIC [9]: 100 µg/mL (≈ 155 µM) | MIC [10]: 1.6 µg/mL (≈ 2.48 µM) | MIC [11]: > 100 µg/mL | MIC [12]: > 100 µg/mL | MIC [13]: > 100 µg/mL | MIC [14]: 0.8 µg/mL (≈ 1.24 µM) | MIC (Mucor spinosus IFO 5317; Mucor spinosus IFO 5317, Sabouraud dextrose agar): 12.5 µg/mL (≈ 19.4 µM) | MIC (Mucor spinosus IFO 5317; in vitro against Mucor spinosus IF05317): 12.5 µg/mL (≈ 19.4 µM) | MIC [15]: > 100 µg/mL | MIC [16]: 0.4 µg/mL (≈ 0.62 µM) | MIC (Proteus vulgalis A9436): > 100 µg/mL | MIC [17]: > 100 µg/mL | MIC (Proteus mirabilis A9554): > 100 µg/mL | MIC [18]: > 100 µg/mL | MIC (Micrococcus luteus 1001): 0.4 µg/mL (≈ 0.62 µM) | MIC [19]: 1.6 µg/mL (≈ 2.48 µM) | MIC [20]: 100 µg/mL (≈ 155 µM) | MIC [21]: > 100 µg/mL | MIC (Escherichia coli NIHJ): > 100 µg/mL | MIC [22]: 1.6 µg/mL (≈ 2.48 µM) | MIC [23]: > 100 µg/mL | MIC [24]: 1.6 µg/mL (≈ 2.48 µM) | IC50 ([25]; B16-F10, 72 hours): 0.007 µg/mL (≈ 0.0109 µM) | times stronger against B16-F10 cells than against Moser cells ([25]; cytotoxic activity, B16-F10 versus Moser): approximately 10 times | IC50 [26]: 0.09 µg/mL (≈ 0.14 µM) | IC50 DNA [27]: 80 µg/mL (≈ 124 µM)
